{"source": "patent US20040009485A1", "about": "“Cellular arrays for the identification of altered gene expression” (priority 2002, published 2004)", "key": {"[1]": {"system": "SoxR/S regulon gene fusions", "test": "Stress response of SoxR/S regulon luxCDABE gene fusions (methyl viologen)", "format": "cell-based, E. coli", "details": "for Methyl viologen response ratio: 250 μg/ml, 120 minutes, LB, treated/untreated", "description": "Like the SOS and heat shock regulon fusions, these had basal light production greater than the promoterless parental plasmid indicating the presence of a promoter. Responsiveness of four of these strains to a known inducer of the SoxR/S regulon, methyl viologen, was tested at 1000, 500, 250, 125, 62, 31 and 16 μg/ml. […] Table 8 gives the response ratio for 250 μg/ml at 120 minutes of treatment for the four tested strains. Here again, the biologically appropriate response was observed."}, "[2]": {"system": "heat shock regulon gene fusions", "test": "Stress response of heat shock regulon luxCDABE gene fusions (ethanol)", "format": "cell-based, E. coli", "details": "for 3% Ethanol Response ratio: 40 minutes, LB, treated/untreated", "description": "To test the stress responses, one or two single colonies of each selected strain were used to inoculate 5.0 ml of LB medium containing 150 μg/ml of ampicillin. These cultures were grown overnight at 37° C. then diluted by adding 50 μl or 100 μl of the overnight culture into 10.0 ml of fresh LB medium (without ampicillin) and grown with agitation at 37° C. until the culture was in exponential phase with readings on a Klett-Summerson colorimeter containing the red filter of between 10 and 40. These actively growing cultures were immediately used to initiate a stress response experiment by adding 50 μl of cultures to 50 μl of LB medium containing various concentrations of chemical in the wells a 96 well luminometer plate. This division of the actively growing culture at the time of chemical addition ensured identical populations were present when the stress was imposed. Light production was measured in a Dynex ML3000 luminometer at 37° C. The dimensionless units of light production, relative light units (RLU), are obtained by comparison with the light reading from an internal light-emitting diode. The cycle mode of the ML3000 luminometer, similar to previous descriptions (Van Dyk et al., Appl. Environ. Microbiol. 60:1414-120) was used. […]"}, "SOS regulon gene fusions": {"system": "SOS regulon gene fusions", "test": "Stress response of SOS regulon luxCDABE gene fusions (nalidixic acid)", "format": "cell-based, E. coli", "details": "SOS regulon gene fusions; 5, 4, or 3% (v/v) ethanol", "description": "To test the stress responses, one or two single colonies of each selected strain were used to inoculate 5.0 ml of LB medium containing 150 μg/ml of ampicillin. These cultures were grown overnight at 37° C. then diluted by adding 50 μl or 100 μl of the overnight culture into 10.0 ml of fresh LB medium (without ampicillin) and grown with agitation at 37° C. until the culture was in exponential phase with readings on a Klett-Summerson colorimeter containing the red filter of between 10 and 40. These actively growing cultures were immediately used to initiate a stress response experiment by adding 50 μl of cultures to 50 μl of LB medium containing various concentrations of chemical in the wells a 96 well luminometer plate. This division of the actively growing culture at the time of chemical addition ensured identical populations were present when the stress was imposed. Light production was measured in a Dynex ML3000 luminometer at 37° C. The dimensionless units of light production, relative light units (RLU), are obtained by comparison with the light reading from an internal light-emitting diode. The cycle mode of the ML3000 luminometer, similar to previous descriptions (Van Dyk et al., Appl. Environ. Microbiol. 60:1414-120) was used.\nThe ability of these promoter-luxCDABE fusions to report activation of the SOS stress response was tested using nalidixic acid, a known, potent chemical inducer. The final concentrations of nalidixic acid were 1, 5, 25, and 125 μg/ml for all but strain DPD2293, which was tested at 80, 40, 20, 10, 5, 2.5, and 1.25 μg/ml.\nSpecificity of responses was tested by measuring the effect of ethanol on these SOS regulon gene fusions."}, "[3]": {"system": "clpB-luxCDABE gene fusion", "details": "38 min; for Response Ratio: 4% ethanol; for Light production in LB + 4% ethanol: 37° C.", "description": "Plasmid DNA was isolated from lux-a.pk043.d3, digested with restriction enzyme XmaI, and ligated with T4 DNA ligase. The ligation reaction was used to transform E. coli strain DPD1675 by electroporation. Transformants were selected by ampicillin resistance. […] Actively growing cultures at 37° C. in LB medium were treated with 4% ethanol arid light production was quantitated at 37° C. using a microplate luminometer (Dynex ML3000). Table 17 summarizes the average bioluminescence of duplicate samples at 38 min after treatment."}, "[4]": {"system": "luxCDABE gene fusions of the Lux-A Collection", "test": "Induction of Lux-A Collection gene fusions by MMC (and yebF fusion by nalidixic acid)", "format": "cell-based, E. coli", "description": "The Lux-A Collection of reporter gene fusions was examined for presence of fusions to the genes in Table 11. […] Each of these was tested for induction by MMC at several doses over a time course of 100 minutes.\nAs expected, the expression of the known SOS genes was elevated; however the expression of several was elevated less than 2-fold (Table 12) and as such were within a large group of 792 genes the expression of which was elevated by 20% or more. Most of these are likely due to artifacts in the array data rather than to actual biologically relevant responses. To test if strains carrying luxCDABE gene fusions would yield the expected positive result, the three gene fusions that were available in the Lux-A Collection of reporter gene fusions were tested for mitomycin C responses.\nIn this case, a divergent promoter to the purT gene was present in the chromosomal fragment and strains containing the backward yebF fusion produced light. […] […] The orientation of the inserted segment to yield a fusion of yebF to the luxCDABE operon was confirmed by DNA sequence analysis."}, "[5]": {"system": "luxCDABE gene fusions in lexA+ host", "test": "Mitomycin C and nalidixic acid responses in lexA+ host", "format": "cell-based, E. coli", "details": "for MitC Ratio, 2 hr 250 ng/ml: lexA+ host", "description": "(§1) In addition, the effect of a lexAind mutation was tested to determine if any of these were part of the SOS regulon. The expectation is that SOS regulon member will be induced by both nalidixic acid and mitomycin C in a manner that is dependent on lexA function (Walker, G. C., (1996) Escherichia coli and Salmonella: Cellular and Molecular Biology ASM Press). […] This is consistent with the observation of upregulation of the b1728 mRNA transcript upon mitomycin C treatment in a LexA dependent fashion (Fernández de Henestrosa et al. (2000). Mol. Microbiol. 35:1560-1572). Likewise, two Gene fusions, those to oraA and yigN were identified is new members of the SOS regulon (Table 16). […] Negative, non-DNA damage responsive gene fusions were also included (Table 16)."}, "[6]": {"system": "luxCDABE gene fusions in lexAind host", "test": "Mitomycin C and nalidixic acid responses in lexAind host", "format": "cell-based, E. coli", "details": "for MitC Ratio, 2 hr 250 ng/ml: lexAind host", "description": "as §1"}, "[7]": {"details": "lux-a.pk054.c3 (DPD2243), clpB fusion"}, "[8]": {"details": "1pxA 1pxB rnhB dnaE fusion (lux-a.pk061.c3)"}, "[9]": {"details": "dinG ybiB fusion (lux-a.pk0024.f5)"}, "[10]": {"details": "lacZ fusion (65.d4), negative control"}, "[11]": {"details": "yciG fusion (lux-a.pk006.b4), negative control"}}, "note": "“And” between values parts separate entries of the source, which are not always exact repeats. Equal entries are not always repeated. Where two headings read alike, the source gives them in different places.", "data": [{"smiles": "C[n+]1ccc(-c2cc[n+](C)cc2)cc1", "note": "[Methyl viologen, methyl viologen]", "values": [{"measurement": "bioluminescence compared with untreated culture", "setting": "[1]; each of four SoxR/S fusion strains, each of 1000, 500, 250, 125, 62, 31 and 16 μg/ml", "value": "induced increased bioluminescence"}, {"measurement": "Methyl viologen response ratio", "setting": "[1]; inaA fusion, DPD2087 (lux-a.pk014.a9)", "value": 9.0}, {"measurement": "Methyl viologen response ratio", "setting": "[1]; poxB fusion, DPD3509 (lux-a.pk071.all)", "value": 15.0}, {"measurement": "Methyl viologen response ratio", "setting": "[1]; ribA fusion, DPD2286 (lux-a.pk078.d2)", "value": 4.7}, {"measurement": "Methyl viologen response ratio", "setting": "[1]; zwf fusion, DPD2272 (lux-a.pk082.g7)", "value": 3.6}]}, {"smiles": "CCO", "note": "[Ethanol, ethanol]", "values": [{"measurement": "3% Ethanol Response ratio", "setting": "[2]; clpB fusion, DPD2243 (lux-a.pk054.c3)", "value": 4.7}, {"measurement": "bioluminescence compared with untreated culture", "setting": "[2]; each of the six heat shock fusion strains, at least two of 5, 4, 3, 2 (v/v)% ethanol", "value": "increased bioluminescence"}, {"measurement": "3% Ethanol Response ratio", "setting": "[2]; grpE fusion, DPD2241 (lux-a.pk057.h1)", "value": 5.2}, {"measurement": "3% Ethanol Response ratio", "setting": "[2]; lon fusion, DPD2242 (lux-a.pk021.g11)", "value": 5.6}, {"measurement": "3% Ethanol Response ratio", "setting": "[2]; rfaDFCL fusion, DPD2244 (lux-a.pk040.e4)", "value": 1.4}, {"measurement": "3% Ethanol Response ratio", "setting": "[2]; rpoD fusion, DPD2246 (lux-a.pk089.e7)", "value": 2.4}, {"measurement": "bioluminescence of SOS regulon gene fusions (specificity)", "setting": "SOS regulon gene fusions", "value": "little to no increased biolumninescence"}, {"measurement": "Response Ratio", "setting": "[3]; Inverted lux-a.pk043.d3 (two transformants)", "value": "6.5 and 5.5"}, {"measurement": "Light production in LB + 4% ethanol", "setting": "[3]; lux-a.pk043.d3 (clpB promoter not operably linked)", "value": 0.0025, "unit": "RLU"}, {"measurement": "Response Ratio", "setting": "[3]; [7]", "value": 9.4}, {"measurement": "Light production in LB + 4% ethanol", "setting": "[3]; [7]", "value": 13.00, "unit": "RLU"}]}, {"smiles": "CO[C@@]12[C@H](COC(N)=O)C3=C(C(=O)C(C)=C(N)C3=O)N1C[C@@H]1N[C@@H]12", "note": "[MMC, mitomycin C]", "values": [{"measurement": "Induction of Fusion", "setting": "[4]; b1847 (yebF)-luxCDABE fusion (when inverted), MMC", "value": "YES"}, {"measurement": "Induction of Fusion", "setting": "[4]; b1847 (yebF)-luxCDABE fusion (when inverted), MMC, listed as mitomycin C", "value": "induction by mitomycin C was demonstrated"}, {"measurement": "Induction of Fusion", "setting": "[4]; dinB (dinP)-luxCDABE fusion, several doses of MMC, time course of 100 minutes", "value": "YES"}, {"measurement": "Induction of Fusion", "setting": "[4]; dinF-luxCDABE fusion, MMC", "value": "YES"}, {"measurement": "Induction of Fusion", "setting": "[4]; dinG-luxCDABE fusion, MMC", "value": "YES"}, {"measurement": "Induction of Fusion", "setting": "[4]; recA-luxCDABE fusion, several doses of MMC, time course of 100 minutes", "value": "YES"}, {"measurement": "Induction of Fusion", "setting": "[4]; ruvA-luxCDABE fusion, several doses of MMC, time course of 100 minutes", "value": "YES"}, {"measurement": "Induction of Fusion", "setting": "[4]; uvrA-luxCDABE fusion, several doses of MMC, time course of 100 minutes", "value": "YES"}, {"measurement": "Induction of Fusion", "setting": "[4]; uvrD-luxCDABE fusion, MMC", "value": "YES"}, {"measurement": "MitC Ratio, 2 hr 250 ng/ml", "setting": "[5]; [8]", "value": 1.06}, {"measurement": "MitC Ratio, 2 hr 250 ng/ml", "setting": "[5]; b1728 fusion (lux-a.pk033.c5)", "value": 8.97}, {"measurement": "MitC Ratio, 2 hr 250 ng/ml", "setting": "[5]; b1936 fusion (lux-a.pk0019.g1)", "value": 1.22}, {"measurement": "MitC Ratio, 2 hr 250 ng/ml", "setting": "[5]; [9]", "value": 5.01}, {"measurement": "MitC Ratio, 2 hr 250 ng/ml", "setting": "[5]; fusion (lux-a.pk0015.d6)", "value": 1.12}, {"measurement": "MitC Ratio, 2 hr 250 ng/ml", "setting": "[5]; [10]", "value": 0.80}, {"measurement": "induction of b1728 promoter-luxCDABE fusion", "setting": "[5]; lexA+ host (FIG. 9)", "value": "clearly induced"}, {"measurement": "MitC Ratio, 2 hr 250 ng/ml", "setting": "[5]; oraA fusion (lux-a.pk058.f5)", "value": 15.27}, {"measurement": "MitC Ratio, 2 hr 250 ng/ml", "setting": "[5]; yaaF fusion (lux-a.pk031.e7)", "value": 1.02}, {"measurement": "MitC Ratio, 2 hr 250 ng/ml", "setting": "[5]; [11]", "value": 0.56}, {"measurement": "MitC Ratio, 2 hr 250 ng/ml", "setting": "[5]; yigN fusion (lux-a.pk046.f11)", "value": 9.84}, {"measurement": "MitC Ratio, 2 hr 250 ng/ml", "setting": "[6]; [8]", "value": 1.29}, {"measurement": "MitC Ratio, 2 hr 250 ng/ml", "setting": "[6]; b1728 fusion (lux-a.pk033.c5)", "value": 0.90}, {"measurement": "MitC Ratio, 2 hr 250 ng/ml", "setting": "[6]; b1936 fusion (lux-a.pk0019.g1)", "value": 2.46}, {"measurement": "MitC Ratio, 2 hr 250 ng/ml", "setting": "[6]; [9]", "value": 1.15}, {"measurement": "MitC Ratio, 2 hr 250 ng/ml", "setting": "[6]; fusion (lux-a.pk0015.d6)", "value": 1.73}, {"measurement": "MitC Ratio, 2 hr 250 ng/ml", "setting": "[6]; [10]", "value": 1.24}, {"measurement": "induction of b1728 promoter-luxCDABE fusion", "setting": "[6]; lexAind host strain (FIG. 9)", "value": "not induced"}, {"measurement": "MitC Ratio, 2 hr 250 ng/ml", "setting": "[6]; oraA fusion (lux-a.pk058.f5)", "value": 1.21}, {"measurement": "MitC Ratio, 2 hr 250 ng/ml", "setting": "[6]; yaaF fusion (lux-a.pk031.e7)", "value": 0.99}, {"measurement": "MitC Ratio, 2 hr 250 ng/ml", "setting": "[6]; [11]", "value": 0.61}, {"measurement": "MitC Ratio, 2 hr 250 ng/ml", "setting": "[6]; yigN fusion (lux-a.pk046.f11)", "value": 0.93}]}]}
